According to the METLIN SMRT retention time set (Domingo-Almenara et al. 2019):

Test: gradient 5% acetonitrile 3 min, to 50% in 2 min, to 85% in 15 min, held 3 min, 100 µL/min
Details: column: Zorbax Extend-C18 2.1 x 50 mm; eluents: water / acetonitrile, 0.1% formic acid
How it was run: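 Each retention time is based on an adduct peak selected computationally and verified by manual inspection. Measurements used HPLC–quadrupole time-of-flight mass spectrometry in positive and negative ionization mode on mixtures of ~100 pure standards. Chromatography ran on a Zorbax Extend-C18 column (2.1 × 50 mm, 1.8 μm) at 100 μL/min with water and acetonitrile, each containing 0.1% formic acid, and dead and dwell volumes of 40 μL and 900 μL.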

| Compound | RP-LC retention time |
| --- | --- |
| CC(=O)Nc1ccc(OCc2cc(C(=O)NC3CCCCC3)no2)cc1 | 781 s |
| CSc1cccc(NC(=O)COc2cc(C(F)(F)F)c3c(C)nn(C)c3n2)c1 | 756 s |
| CCSc1nnc(-c2nn(C)c3c2CN(C(=O)c2ccc(C)cc2)CC3)n1C | 770 s |
| Cc1ccccc1-c1nc2cnccn2c1NCCC(=O)NCc1ccccc1F | 660 s |
| COCCn1c(SCc2nc(-c3ccccc3C)no2)nc2cc3c(cc2c1=O)OCO3 | 1120 s |
| Cc1cc(C)n2nc(CN(C(=O)c3ccco3)c3cccc(Cl)c3)nc2n1 | 776 s |
| COCCN1C(=O)[C@H]2CN(Cc3cc(Cl)ccc3F)C[C@H]2C1=O | 696 s |
| CCn1nccc1C(=O)N1CCC(n2c(-c3ccsc3)nc3cccnc32)C1 (configuration not stated) | 643 s |
| Cc1c(C)n(C)c2ccc(C(N)=O)cc12 | 704 s |
| CC(C)(C)C1=NN=C2c3ccccc3C(=O)C21 (configuration not stated) | 852 s |
| O=C(COc1ccc(F)cc1)N1CC(n2cnnc2C2CC2)C1 | 627 s |
| COCCN1C(=O)c2ccccc2C(C(=O)N2CCN(Cc3ccccc3)CC2)C1c1cccs1 (configuration not stated) | 661 s |
| Cc1ccc(-c2nnc(-c3ccccc3Cl)o2)cc1S(=O)(=O)N(C)C | 999 s |
| Cc1cccc(-c2nnc(-c3nc(NCCCN4CCCC4=O)c4ccccc4n3)o2)c1 | 814 s |
| COc1ccc(OC)c(NC(=O)CSc2ccc(N3CCCC(C(=O)NC4CC4)C3)nn2)c1 (configuration not stated) | 672 s |
| O=C(NCCOc1ccccc1)Nc1ccc(OC(F)(F)F)cc1 | 910 s |
| Cc1ccc(NC(=O)Cn2c(C)cc(-c3nnc(C)o3)c2C)c(Cl)c1 | 835 s |
| Cc1nc2cccnc2n1CC1CCCN(S(=O)(=O)c2cc(F)ccc2F)C1 (configuration not stated) | 703 s |
| Cc1cc(C(=O)NCC(c2cn(C)c3ccccc23)N(C)C)no1 (configuration not stated) | 557 s |
| Cc1cccc(C)c1NC(=O)Cn1c(=O)nc(N2CCC(C)CC2)c2ccccc21 | 819 s |
| Cc1nc(N2CCN(c3ccccn3)CC2)nc2c1C(=O)CC(c1cccc(Cl)c1)C2 (configuration not stated) | 838 s |
| Cc1ccc(S(=O)(=O)Nc2ccc(-c3cn4cccc(C)c4n3)cc2)c(C)c1 | 688 s |

| Compound | RP-LC retention time |
| --- | --- |
| Cc1ccc(-c2noc(Cn3ccn(-c4cc(C)ccc4C)c(=O)c3=O)n2)cc1 | 950 s |
| CN(C)c1cccc(C(=O)Nc2cc(-c3ccsc3)no2)c1 | 927 s |
| C=CCNCc1ccc(-c2cccc(C(F)(F)F)c2)o1 | 714 s |
| CCNC(=O)c1n[nH]c2c1CN(Cc1sccc1C)CC2 | 572 s |
| CCOc1ccc(CNC(=O)C2CCCN(c3nn4c(=O)c5c(nc4s3)CCCC5)C2)cc1OC (configuration not stated) | 737 s |
| CCOC(=O)c1nc(Nc2cc(Cl)c(OC)cc2OC)c2ccccc2n1 | 964 s |
| COc1cc(NC(=O)N2CCN(c3cc(C)nc(N4CCCCC4)n3)CC2)cc(OC)c1OC | 669 s |
| COc1ccc(NC(=O)c2nc(C3CCC3)oc2C)cc1C(F)(F)F | 1170 s |
| Cc1cccc(NC(=O)c2[nH]c(C)c(S(=O)(=O)N3CCCC3)c2C)c1C | 858 s |
| CC(C)N1CCc2c(sc(NC(=O)c3ccc([N+](=O)[O-])s3)c2C(N)=O)C1 | 573 s |
| Fc1cccc(-c2noc(-c3ccc(N4CCN(c5ncccn5)CC4)nc3)n2)c1 | 1230 s |
| CCn1cc(C2=CCN(C(=O)Cc3ccc(F)cc3)CC2)c2cccnc21 | 876 s |
| CSc1ncccc1C(=O)Nc1cccc(OCc2nnc(-c3ccccc3)o2)c1 | 908 s |
| Cc1ccc(-c2ccc(=O)n(Cc3nc(-c4ccc5c(c4)OCO5)no3)n2)cc1 | 1020 s |
| CC1CCCN(c2ccc(-c3noc(CN4CCN(c5ccccn5)CC4)n3)cn2)C1 (configuration not stated) | 908 s |
| O=C(c1ccncc1)N1CC(N(Cc2ccncc2)CC2CC2)C1 | 519 s |
| Cc1cc(C(=O)N2CC(n3cc(COc4ccc(F)cc4)nn3)C2)n(C)n1 | 637 s |
| COc1ccccc1CNC(=O)C1CCCN(c2nnc(C)c3c(C)n(-c4ccccc4)nc23)C1 (configuration not stated) | 725 s |
| CC(C)c1ccc(OCC(=O)Oc2ccc3c(c2)ncn3C)cc1 | 662 s |
| COc1ccc(OC)c(CNS(=O)(=O)c2cc(-c3cnn4c(C)cc(C)nc34)ccc2OC)c1 | 935 s |
| CCOCC(=O)N1C[C@@H]2CCCN3CCC[C@@H]([C@H]23)[C@H]1CCCC(=O)NCC1CC1 | 574 s |
| O=C(c1cn(-c2cc(N3CCSCC3)ncn2)cn1)N1CCN(c2ncccn2)CC1 | 739 s |

| Compound | RP-LC retention time |
| --- | --- |
| CC(C(=O)N1Cc2c(C(=O)NC3CC3)nn(C)c2C1)c1ccccc1 (configuration not stated) | 708 s |
| Cc1nc(-c2ccc(N3CCN(C(=O)c4cccc(Cl)c4)CC3)nc2)sc1C | 957 s |
| CCN1c2ccc(C)cc2C(=O)NC12CCN(C(=O)Cc1ccc(C)cc1)CC2 | 887 s |
| CCCC(NC(=O)CCc1c(-c2ccc(Cl)cc2)nc2ccccn12)c1cccs1 (configuration not stated) | 767 s |
| CCOC(=O)CSc1nnc(-c2cccnc2)n1-c1ccccc1 | 654 s |
| Cn1cccc1Cc1nnc(SCC(=O)Nc2ccccc2F)n1CCc1ccccc1 | 850 s |
| CN1[C@@H]2CC[C@H]1CC(OC(=O)C1C=Nc3ccccc31)C2 (some centres not stated) | 656 s |
| COc1ccc(-n2ccn3cc(-c4ccc5c(c4)OCO5)nc3c2=O)cc1OC | 733 s |
| O=C(NCC1CC1)C1CCN(C(=O)c2ncn3c2COC(c2ccccc2)C3)CC1 (configuration not stated) | 681 s |
| O=C(Cn1nc2c3cc(-c4ccccc4)nn3ccn2c1=O)NCc1ccco1 | 792 s |
| CCN(CCN(C)C)c1ccc(NS(=O)(=O)c2ccccc2)cc1C(=O)O | 582 s |
| CC(C)c1ccc(-c2ccc(=O)n(CCc3nc(-c4ccc5c(c4)OCO5)no3)n2)cc1 | 1140 s |
| COc1ccc(S(=O)(=O)N2CCN(c3cc(C)nc(NC4CCCCC4)n3)CC2)cc1C | 848 s |
| CCc1nc2cc(N3CCC(C(=O)N(CC)CC)CC3)cnc2nc1CC | 712 s |
| CCSc1nnc(-c2nn(C)c3c2CN(S(=O)(=O)c2ccc(C)c(F)c2)CC3)n1CC | 1000 s |
| O=C(c1cnccn1)N1C[C@@H](COCC2CC2)[C@H](c2ccncc2)C1 | 563 s |
| CCc1nc(-c2csc(S(=O)(=O)N3CCCC(C(=O)NCc4ccc(F)cc4)C3)c2)no1 (configuration not stated) | 976 s |
| CCOc1ccc(-c2noc(Cn3cnc4c(cnn4-c4ccccc4)c3=O)n2)cc1OC | 980 s |
| CCN(CC)c1ncnc2c(-c3ccccc3)cn(CC(=O)N3CCCC3)c12 | 674 s |
| CCOc1ccc(NS(=O)(=O)c2cc(C(=O)N3CCN(c4ccc(C)cc4C)CC3)n[nH]2)cc1 | 1030 s |
| CCOc1ccccc1CNC(=O)c1c(C)sc2ccn(CC)c(=O)c12 | 893 s |
| Fc1ccc(C(OCCCc2cnc[nH]2)c2ccc(F)cc2)cc1 | 833 s |

| Compound | RP-LC retention time |
| --- | --- |
| O=S(=O)(c1ccc(Cl)s1)N1CCC(c2nnc(-c3ccco3)o2)CC1 | 868 s |
| CC1=C(c2ccc(C)cc2)S(=O)(=O)N=C1N1CCCN(C(=O)c2ccccc2)CC1 | 837 s |
| CCOc1ccc(-n2ccnc(NC(=O)Nc3ccc(F)cc3)c2=O)cc1 | 985 s |
| CC1CCCCN1CCNS(=O)(=O)c1ccccc1-c1nc(-c2ccc(F)cc2)no1 (configuration not stated) | 755 s |
| Cc1ccc(-n2c(N3CCCC(C(=O)NCCC4=CCCCC4)C3)nc3ccsc3c2=O)cc1 (configuration not stated) | 1060 s |
| Cc1cccc(-c2noc(-c3cc(N4CCN(C)CC4)nc4ccccc34)n2)c1 | 837 s |
| Cc1ncc2c(n1)CCN(C(=O)c1cccc(Cl)c1)C2 | 653 s |
| Cc1ccc(-c2ncccc2CNS(=O)(=O)c2cccc(F)c2)cc1 | 713 s |
| Cc1ccc(NS(=O)(=O)c2ccc(-c3c(C)noc3C)cc2)c(C)c1 | 985 s |
| CCC(=O)N1CCCC(c2ccnc(Nc3ccc(C)cc3)n2)C1 (configuration not stated) | 827 s |
| CCOC(=O)c1c(C)c(CCC(=O)NCCN2CCCCCC2)n(C)c1C | 645 s |
| CCN1C(=O)C2(CCN(S(=O)(=O)c3cc(C)ccc3C)CC2)c2ccccc21 | 1110 s |
| Cn1cnc2cc(OC(=O)c3c(F)cccc3F)ccc21 | 590 s |
| Cc1ccn2c(NC(=O)c3cccc([N+](=O)[O-])c3C)c(-c3ccccc3)nc2c1 | 677 s |
| CCCC(=O)Nc1ccc2nc(N3CCN(c4ccc(OC)cc4)CC3)cc(C(=O)O)c2c1 | 633 s |
| CNC(=O)c1ccc(-c2nc3cc(NS(=O)(=O)c4ccccc4F)ccc3n2C)cc1 | 616 s |
| COc1cc(OC)cc(C(=O)N2CCC3(CC2)NC(=O)c2ccc(F)cc2N3C)c1 | 734 s |
| CCOc1cccc(-c2noc(Cn3c(=O)n(Cc4ccc(OC)cc4)c(=O)c4sccc43)n2)c1 | 1060 s |
| CC(=O)Nc1cc([N+](=O)[O-])c(N(C)S(=O)(=O)c2ccccc2)c2ccccc12 | 781 s |
| CCn1ncc(Cl)c1C(=O)N1CCCC1c1cc(C)no1 (configuration not stated) | 741 s |
| Cc1nn(-c2ccccc2)c(C)c1S(=O)(=O)N1CCC(C(=O)Nc2ccccc2)CC1 | 926 s |
